Measured values as given in ChEMBL document CHEMBL5233204, “Expanding the repertoire of methanocarba nucleosides from purinergic signaling to diverse targets” (RSC Med Chem, 2021).
pEC50, pIC50, pKi: −log10 of the molar value.

Assays:
P2Y purinoceptor 1 [1] = biological target: T1, P2Y purinoceptor 1 (Homo sapiens, UniProt P47900); test: Agonist activity at human P2Y1R in human 1321N1 cells assessed as efficacy relative to control; type: cell-based; details: filed as agonist
[2] = Inhibition of S-adenosyl homocysteine hydrolase (unknown origin) relative to control; details: Homo sapiens; concentration not given here
P2Y purinoceptor 6 = P2Y purinoceptor 6 (Mus musculus, UniProt Q9ERK9); test: Agonist activity at P2Y6R in mouse adipose tissue; type: tissue-based
P2Y purinoceptor 6, sequence (Q9ERK9 whole entry): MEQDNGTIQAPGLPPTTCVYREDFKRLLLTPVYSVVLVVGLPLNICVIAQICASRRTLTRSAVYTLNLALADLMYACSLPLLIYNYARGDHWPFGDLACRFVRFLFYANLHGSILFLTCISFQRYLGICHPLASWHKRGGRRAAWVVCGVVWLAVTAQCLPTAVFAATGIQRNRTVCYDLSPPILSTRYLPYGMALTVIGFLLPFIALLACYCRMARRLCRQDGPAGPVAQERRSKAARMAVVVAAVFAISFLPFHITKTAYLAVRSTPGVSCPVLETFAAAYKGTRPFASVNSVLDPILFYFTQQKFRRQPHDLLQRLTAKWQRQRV

Adenosine receptor A3 [3] = biological target: T2, Adenosine receptor A3 (Homo sapiens, UniProt P0DMS8); test: Binding affinity to human adenosine A3 receptor assessed as inhibition constant
T2 sequence (P0DMS8 whole entry): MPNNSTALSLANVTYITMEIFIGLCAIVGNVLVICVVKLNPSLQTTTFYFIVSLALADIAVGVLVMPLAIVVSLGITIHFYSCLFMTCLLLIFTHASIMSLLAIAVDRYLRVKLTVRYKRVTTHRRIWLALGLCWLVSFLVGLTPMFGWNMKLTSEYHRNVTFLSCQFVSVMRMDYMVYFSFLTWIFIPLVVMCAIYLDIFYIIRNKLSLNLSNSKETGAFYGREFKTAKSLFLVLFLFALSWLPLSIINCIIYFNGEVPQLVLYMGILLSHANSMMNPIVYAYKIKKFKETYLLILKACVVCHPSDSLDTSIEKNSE

[4] = biological target: T3, Kappa-type opioid receptor (Homo sapiens, UniProt P41145); test: Activation of human KOR assessed as beta-arrestin 2 recruitment at 30 uM by PathHunter enzyme fragment complementation assay relative to control
T3 sequence (P41145 whole entry, the tested form may be a part): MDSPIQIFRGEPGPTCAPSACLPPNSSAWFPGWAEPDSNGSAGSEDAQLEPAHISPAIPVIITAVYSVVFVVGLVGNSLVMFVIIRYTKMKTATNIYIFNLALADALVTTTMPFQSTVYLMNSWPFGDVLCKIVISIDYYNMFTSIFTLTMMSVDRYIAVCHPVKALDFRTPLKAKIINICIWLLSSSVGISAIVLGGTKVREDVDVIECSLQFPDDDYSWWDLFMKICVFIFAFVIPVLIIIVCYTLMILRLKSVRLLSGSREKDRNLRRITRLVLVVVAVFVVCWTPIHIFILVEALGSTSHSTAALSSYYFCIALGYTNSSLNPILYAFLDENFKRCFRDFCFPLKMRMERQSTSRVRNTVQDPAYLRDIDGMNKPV

[5] = biological target: Delta-type opioid receptor (Homo sapiens, UniProt P41143); test: Binding affinity to DOR (unknown origin)
Delta-type opioid receptor, sequence (P41143 whole entry): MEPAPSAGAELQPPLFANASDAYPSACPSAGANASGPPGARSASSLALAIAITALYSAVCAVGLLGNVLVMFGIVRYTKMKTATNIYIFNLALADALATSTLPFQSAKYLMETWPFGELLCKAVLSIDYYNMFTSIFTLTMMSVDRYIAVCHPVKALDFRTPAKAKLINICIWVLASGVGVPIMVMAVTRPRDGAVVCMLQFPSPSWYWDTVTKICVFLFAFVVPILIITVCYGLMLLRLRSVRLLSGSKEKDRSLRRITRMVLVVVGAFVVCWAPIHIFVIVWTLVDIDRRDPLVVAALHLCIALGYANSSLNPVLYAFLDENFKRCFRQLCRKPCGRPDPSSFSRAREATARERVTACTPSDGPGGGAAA

[6] = biological target: T3, Kappa-type opioid receptor; test: Binding affinity to KOR (unknown origin)
Mu-type opioid receptor = Mu-type opioid receptor (Homo sapiens, UniProt P35372); test: Binding affinity to MOR (unknown origin)
Mu-type opioid receptor, sequence (P35372 whole entry): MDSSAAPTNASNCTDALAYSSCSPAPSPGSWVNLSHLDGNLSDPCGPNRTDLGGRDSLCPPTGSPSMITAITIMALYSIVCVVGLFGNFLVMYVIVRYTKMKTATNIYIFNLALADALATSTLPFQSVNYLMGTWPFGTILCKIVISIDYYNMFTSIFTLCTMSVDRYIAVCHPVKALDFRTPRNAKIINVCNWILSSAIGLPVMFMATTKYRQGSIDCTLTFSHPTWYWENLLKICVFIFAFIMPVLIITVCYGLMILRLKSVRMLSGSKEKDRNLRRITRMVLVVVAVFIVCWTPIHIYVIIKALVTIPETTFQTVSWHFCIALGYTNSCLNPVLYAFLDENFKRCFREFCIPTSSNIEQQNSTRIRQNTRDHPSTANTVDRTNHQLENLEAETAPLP

Adenosine receptor A3 [7] = biological target: T4, Adenosine receptor A3 (Mus musculus, UniProt Q61618); test: Binding affinity to mouse adenosine A3 receptor assessed as inhibition constant
T4 sequence (Q61618 whole entry): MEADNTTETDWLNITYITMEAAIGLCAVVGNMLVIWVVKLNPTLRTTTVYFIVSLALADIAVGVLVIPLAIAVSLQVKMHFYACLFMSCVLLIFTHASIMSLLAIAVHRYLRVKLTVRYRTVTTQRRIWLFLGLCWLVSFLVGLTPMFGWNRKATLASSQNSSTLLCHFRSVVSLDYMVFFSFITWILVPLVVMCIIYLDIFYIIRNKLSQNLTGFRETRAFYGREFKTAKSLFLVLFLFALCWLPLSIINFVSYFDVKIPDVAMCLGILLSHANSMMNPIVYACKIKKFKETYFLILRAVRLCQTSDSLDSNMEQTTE

[8] = biological target: T5, Sodium/nucleoside cotransporter 1 (Homo sapiens, UniProt O00337); test: Inhibition of CNT1 (unknown origin)
T5 sequence (O00337 whole entry): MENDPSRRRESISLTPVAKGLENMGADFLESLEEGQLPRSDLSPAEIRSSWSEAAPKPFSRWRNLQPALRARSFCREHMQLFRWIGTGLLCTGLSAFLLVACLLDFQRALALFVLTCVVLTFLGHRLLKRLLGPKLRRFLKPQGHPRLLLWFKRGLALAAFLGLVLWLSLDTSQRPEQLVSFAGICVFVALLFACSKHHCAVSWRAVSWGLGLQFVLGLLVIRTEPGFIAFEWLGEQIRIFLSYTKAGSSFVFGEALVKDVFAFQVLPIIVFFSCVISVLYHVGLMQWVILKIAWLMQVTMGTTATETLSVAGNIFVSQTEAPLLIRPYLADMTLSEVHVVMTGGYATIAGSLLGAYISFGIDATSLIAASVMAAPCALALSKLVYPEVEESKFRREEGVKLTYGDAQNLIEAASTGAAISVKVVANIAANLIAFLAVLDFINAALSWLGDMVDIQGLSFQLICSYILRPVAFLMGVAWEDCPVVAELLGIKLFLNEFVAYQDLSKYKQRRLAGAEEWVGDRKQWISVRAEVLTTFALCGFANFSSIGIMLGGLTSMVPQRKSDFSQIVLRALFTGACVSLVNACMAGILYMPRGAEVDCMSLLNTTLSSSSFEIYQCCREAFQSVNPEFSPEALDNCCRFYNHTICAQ

[9] = biological target: T6, Sodium/nucleoside cotransporter 2 (Homo sapiens, UniProt O43868); test: Inhibition of CNT2 (unknown origin)
T6 sequence (O43868 whole entry): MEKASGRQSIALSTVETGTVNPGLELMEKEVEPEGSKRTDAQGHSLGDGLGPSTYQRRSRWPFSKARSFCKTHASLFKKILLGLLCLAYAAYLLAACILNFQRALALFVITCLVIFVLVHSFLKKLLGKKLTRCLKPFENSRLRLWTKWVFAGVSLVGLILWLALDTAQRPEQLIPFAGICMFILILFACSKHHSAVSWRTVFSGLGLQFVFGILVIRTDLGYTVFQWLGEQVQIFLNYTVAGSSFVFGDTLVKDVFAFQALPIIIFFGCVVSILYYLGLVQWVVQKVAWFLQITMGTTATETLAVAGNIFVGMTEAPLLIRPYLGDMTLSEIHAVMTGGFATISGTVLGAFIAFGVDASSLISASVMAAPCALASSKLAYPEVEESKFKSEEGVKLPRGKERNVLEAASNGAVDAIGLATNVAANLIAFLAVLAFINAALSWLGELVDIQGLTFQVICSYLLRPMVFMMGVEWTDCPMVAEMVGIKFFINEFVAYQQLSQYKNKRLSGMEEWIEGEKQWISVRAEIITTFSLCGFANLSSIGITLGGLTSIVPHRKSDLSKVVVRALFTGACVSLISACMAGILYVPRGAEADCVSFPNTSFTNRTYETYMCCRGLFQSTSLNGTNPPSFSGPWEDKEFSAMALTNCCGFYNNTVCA

P2Y purinoceptor 1 [10] = biological target: T1, P2Y purinoceptor 1; test: Agonist activity at human P2Y1R in human 1321N1 cells; type: cell-based
Adenosine receptor A2b = Adenosine receptor A2b (Homo sapiens, UniProt P29275); test: Binding affinity to human adenosine A2B receptor assessed as inhibition constant
Adenosine receptor A2b, sequence (P29275 whole entry): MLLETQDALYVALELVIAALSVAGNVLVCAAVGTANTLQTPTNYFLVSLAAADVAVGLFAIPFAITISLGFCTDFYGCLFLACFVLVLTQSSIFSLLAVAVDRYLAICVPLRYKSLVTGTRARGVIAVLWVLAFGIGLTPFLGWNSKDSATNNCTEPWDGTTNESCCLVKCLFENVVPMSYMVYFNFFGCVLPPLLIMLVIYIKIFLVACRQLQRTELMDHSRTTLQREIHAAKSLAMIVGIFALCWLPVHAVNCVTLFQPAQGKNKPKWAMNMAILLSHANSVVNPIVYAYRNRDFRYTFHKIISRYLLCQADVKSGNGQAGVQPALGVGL

Adenosine receptor A2a = Adenosine receptor A2a (Homo sapiens, UniProt P29274); test: Binding affinity to human adenosine A2A receptor assessed as inhibition constant
Adenosine receptor A2a, sequence (P29274 whole entry): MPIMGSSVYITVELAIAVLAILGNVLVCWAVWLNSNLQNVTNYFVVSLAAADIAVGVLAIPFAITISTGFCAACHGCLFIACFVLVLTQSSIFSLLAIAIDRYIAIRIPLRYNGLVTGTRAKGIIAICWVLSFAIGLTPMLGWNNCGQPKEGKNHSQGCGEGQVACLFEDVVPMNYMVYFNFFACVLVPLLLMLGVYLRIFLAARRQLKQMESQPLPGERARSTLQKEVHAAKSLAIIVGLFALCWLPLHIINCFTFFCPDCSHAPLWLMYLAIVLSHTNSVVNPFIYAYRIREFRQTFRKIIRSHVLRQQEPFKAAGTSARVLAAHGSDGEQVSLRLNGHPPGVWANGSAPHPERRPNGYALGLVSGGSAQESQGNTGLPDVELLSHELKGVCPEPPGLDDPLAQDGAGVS

Adenosine receptor A1 [11] = biological target: Adenosine receptor A1 (Rattus norvegicus, UniProt P25099); test: Binding affinity to rat adenosine A1 receptor assessed as inhibition constant
Adenosine receptor A1 (Rattus norvegicus, UniProt P25099), sequence (P25099 whole entry): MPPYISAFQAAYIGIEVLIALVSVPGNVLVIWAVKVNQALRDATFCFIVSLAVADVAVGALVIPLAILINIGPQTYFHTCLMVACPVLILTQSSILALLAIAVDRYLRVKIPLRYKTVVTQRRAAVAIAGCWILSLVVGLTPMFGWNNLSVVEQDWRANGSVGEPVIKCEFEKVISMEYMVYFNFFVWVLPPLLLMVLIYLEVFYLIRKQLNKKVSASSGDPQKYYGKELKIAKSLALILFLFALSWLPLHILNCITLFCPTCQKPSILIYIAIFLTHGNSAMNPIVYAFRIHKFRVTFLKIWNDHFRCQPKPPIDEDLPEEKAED

[12] = biological target: 5-hydroxytryptamine receptor 2A (Homo sapiens, UniProt P28223); test: Binding affinity to 5HT2A receptor (unknown origin) assessed as inhibition constant
5-hydroxytryptamine receptor 2A, sequence (P28223 whole entry): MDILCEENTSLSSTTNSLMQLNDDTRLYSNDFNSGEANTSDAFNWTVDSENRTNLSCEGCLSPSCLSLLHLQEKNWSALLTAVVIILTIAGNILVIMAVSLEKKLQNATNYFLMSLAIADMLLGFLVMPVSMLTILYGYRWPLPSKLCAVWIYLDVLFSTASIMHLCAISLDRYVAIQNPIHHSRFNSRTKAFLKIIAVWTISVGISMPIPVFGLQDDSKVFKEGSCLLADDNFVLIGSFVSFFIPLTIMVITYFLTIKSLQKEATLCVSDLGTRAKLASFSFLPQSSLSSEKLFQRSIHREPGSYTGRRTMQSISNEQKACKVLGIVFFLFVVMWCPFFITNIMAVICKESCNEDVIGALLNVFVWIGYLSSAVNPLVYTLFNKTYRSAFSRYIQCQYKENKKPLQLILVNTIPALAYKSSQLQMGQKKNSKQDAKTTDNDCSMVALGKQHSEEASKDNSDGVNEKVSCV

[13] = biological target: T7, 5-hydroxytryptamine receptor 2C (Homo sapiens, UniProt P28335); test: Binding affinity to 5HT2C receptor (unknown origin) assessed as inhibition constant
T7 sequence (P28335 whole entry): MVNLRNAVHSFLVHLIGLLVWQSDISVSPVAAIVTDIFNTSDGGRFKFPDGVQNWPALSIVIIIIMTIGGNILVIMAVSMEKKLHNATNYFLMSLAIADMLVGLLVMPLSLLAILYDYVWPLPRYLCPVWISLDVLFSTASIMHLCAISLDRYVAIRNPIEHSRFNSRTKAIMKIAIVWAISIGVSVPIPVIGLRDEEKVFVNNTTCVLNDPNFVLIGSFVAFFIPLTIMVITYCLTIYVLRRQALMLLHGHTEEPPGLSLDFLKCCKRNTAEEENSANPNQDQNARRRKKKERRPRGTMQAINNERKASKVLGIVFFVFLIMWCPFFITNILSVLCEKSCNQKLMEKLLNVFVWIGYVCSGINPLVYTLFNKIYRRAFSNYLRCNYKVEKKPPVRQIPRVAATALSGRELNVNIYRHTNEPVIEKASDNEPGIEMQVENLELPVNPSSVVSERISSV

[14] = biological target: 5-hydroxytryptamine receptor 2B (Homo sapiens, UniProt P41595); test: Binding affinity to 5HT2B receptor (unknown origin) assessed as inhibition constant
5-hydroxytryptamine receptor 2B, sequence (P41595 whole entry): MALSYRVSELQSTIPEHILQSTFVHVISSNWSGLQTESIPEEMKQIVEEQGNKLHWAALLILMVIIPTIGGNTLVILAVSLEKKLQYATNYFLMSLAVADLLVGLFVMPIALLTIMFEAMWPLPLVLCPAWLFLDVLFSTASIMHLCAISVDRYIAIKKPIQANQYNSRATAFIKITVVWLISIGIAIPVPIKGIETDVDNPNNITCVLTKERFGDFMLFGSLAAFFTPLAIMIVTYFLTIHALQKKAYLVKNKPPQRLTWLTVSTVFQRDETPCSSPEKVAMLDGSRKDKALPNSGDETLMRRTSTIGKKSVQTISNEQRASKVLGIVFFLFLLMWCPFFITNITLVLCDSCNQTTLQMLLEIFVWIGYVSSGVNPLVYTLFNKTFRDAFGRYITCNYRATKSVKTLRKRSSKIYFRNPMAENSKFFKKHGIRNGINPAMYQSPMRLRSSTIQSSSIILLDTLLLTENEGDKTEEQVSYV

Adenosine receptor A1 [15] = biological target: Adenosine receptor A1 (Homo sapiens, UniProt P30542); test: Binding affinity to human adenosine A1 receptor assessed as inhibition constant
Adenosine receptor A1 (Homo sapiens, UniProt P30542), sequence (P30542 whole entry): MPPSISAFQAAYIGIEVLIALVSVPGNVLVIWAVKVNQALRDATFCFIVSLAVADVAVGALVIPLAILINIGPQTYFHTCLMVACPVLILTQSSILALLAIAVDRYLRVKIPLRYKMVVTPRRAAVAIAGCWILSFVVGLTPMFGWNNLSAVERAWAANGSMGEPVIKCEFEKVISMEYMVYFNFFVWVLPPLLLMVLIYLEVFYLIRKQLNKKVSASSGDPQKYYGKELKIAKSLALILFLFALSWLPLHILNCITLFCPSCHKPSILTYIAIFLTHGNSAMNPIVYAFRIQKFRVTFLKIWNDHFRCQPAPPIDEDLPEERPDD

T1 sequence (P47900 whole entry): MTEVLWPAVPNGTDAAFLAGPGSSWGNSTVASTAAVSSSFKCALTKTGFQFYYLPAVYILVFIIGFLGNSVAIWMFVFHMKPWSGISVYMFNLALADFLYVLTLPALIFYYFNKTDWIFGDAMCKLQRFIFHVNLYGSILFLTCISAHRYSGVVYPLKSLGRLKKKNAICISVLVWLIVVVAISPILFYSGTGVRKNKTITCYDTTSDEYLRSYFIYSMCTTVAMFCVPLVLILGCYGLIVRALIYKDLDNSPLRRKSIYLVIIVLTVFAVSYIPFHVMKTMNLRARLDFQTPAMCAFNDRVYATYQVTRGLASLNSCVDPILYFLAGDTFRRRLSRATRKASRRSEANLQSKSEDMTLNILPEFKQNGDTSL

CSc1nc(N)c2ncn([C@@H]3O[C@H](COP(=O)(O)OP(=O)(O)O)[C@@H](O)[C@H]3O)c2n1
Efficacy (P2Y purinoceptor 1 [1]): 100%

Nc1ncnc2c1ncn2[C@H]1[C@H](O)[C@H](O)[C@]2(CO)C[C@H]12
inhibition [2]: 30%

CO/N=c1\ccn([C@]23C[C@H]2[C@@H](COP(=O)(O)OP(=O)(O)O)[C@@H](O)[C@H]3O)c(=O)[nH]1
pEC50 (P2Y purinoceptor 6): 7.00

CCOC(=O)[C@]12C[C@@H]1[C@@H](n1ccc3c(NC)nc(C#Cc4ccc(Cl)s4)nc31)[C@H](O)[C@@H]2O
pKi (Adenosine receptor A3 [3]): 6.35 | Activity [4]: 0% | pKi [5]: 6.10 | pKi [6]: 7.38 | pKi (Mu-type opioid receptor): 6.20 | pKi (Adenosine receptor A3 [7]): < 5.00

O=[N+]([O-])c1ccc(CSc2ncnc3c2ncn3[C@@H]2O[C@H](CO)[C@@H](O)[C@H]2O)cc1 [NITROBENZYLMERCAPTOPURINE RIBONUCLEOSIDE]
pIC50 [8]: < 5.00 | pIC50 [9]: < 5.00

Nc1ncnc2c1ncn2[C@]12C[C@H](OP(=O)(O)O)[C@@H](COP(=O)(O)O)[C@@H]1C2
Efficacy (P2Y purinoceptor 1 [1]): 50% | pEC50 (P2Y purinoceptor 1 [10]): 4.72

Nc1ncnc2c1ncn2[C@H]1[C@H](O)[C@H](O)[C@@]2(CO)C[C@H]12
pKi (Adenosine receptor A3 [3]): 6.39 | pKi (Adenosine receptor A2b): < 4.30 | pKi (Adenosine receptor A2a): 4.65 | pKi (Adenosine receptor A1 [11]): 5.77

OC[C@]12C[C@@H]1[C@@H](n1cnc3c(NC(C4CC4)C4CC4)nc(Cl)nc31)[C@H](O)[C@@H]2O
pKi [12]: < 5.00 | pKi [13]: 7.08

CNC(=O)[C@]12C[C@@H]1[C@@H](n1cnc3c(NC(C4CC4)C4CC4)nc(Cl)nc31)[C@H](O)[C@@H]2O
pKi [12]: < 5.00 | pKi [14]: 7.64 | pKi [13]: 6.57

CCCNc1nc(C#Cc2ccc(Cl)s2)nc2c1ncn2[C@H]1[C@H](O)[C@H](O)[C@]2(C(=O)NC)C[C@H]12
pKi (Adenosine receptor A1 [15]): < 5.00

CNC(=O)[C@@]12C[C@@H]1[C@@H](n1cnc3c(NC)nc(C#Cc4ccc(F)s4)nc31)[C@H](O)[C@@H]2O
pKi (Adenosine receptor A1 [15]): < 5.00

Nc1ncnc2c1ncn2[C@@H]1C[C@H](CO)[C@@H](O)[C@H]1O
inhibition [2]: 30%

CCOC(=O)[C@]12C[C@@H]1[C@@H](n1cnc3c(NC(C4CC4)C4CC4)nc(Cl)nc31)[C@H](O)[C@@H]2O
pKi [12]: < 5.00 | pKi [14]: 7.82 | pKi [13]: 7.52
